The data set is described as follows: recombinant UMI read abundance after kanamycin selection (control-corrected) (log10(CPM+1)); higher = more efficient recombination; extreme values may be limits of the assay; sequences stand for … in AGTGCAGAGAAAATCGGCCAGTTTTCTCTGCCTGCAGTCCGCATGCCGTGGGACCCCTTGGGTTCTAACCTGTTGCCTAGATTTATGCAGCGGACTGCCTTTCTCCCAAAGTGATAAACCGG…AGGTTGGTTTCACT; site = the 11-nt donor. The procedure, abridged: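 Values, expressed as log10(CPM+1), derive from recombinant UMI counts converted to CPM, averaged across replicates and scaled by control-derived factors. Plating was with IPTG (0.07 mM) plus kanamycin or unselected, two replicates each. The screen pooled donor and donor-binding-loop pairs for the IS621 bridge recombinase in Escherichia coli.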
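Further: IS621 bridge recombinase in Escherichia coli cells against a fixed T5 target plasmid.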

Turning to “ACATCTACATGGACCGGTTTTCCCGGTAATCCGTATTTGTC (site ACATCTACTTA)”, the “recombinant UMI read abundance (log10)” value was found to be 0.0124.

“ACATCTACATGGACCGGTTTTCCCGGTAATCCGTATTTGTT (site ACATCTACTAA)”: the “recombinant UMI read abundance (log10)” value is 0.142.

Turning to “ACATCTACATGGACCGGTTTTCCCGGTAATCCGTATTTGTT (site ACATCTACTCA)”, the “recombinant UMI read abundance (log10)” value worked out at 0.0105.

With “ACATCTACATGGACCGGTTTTCCCGGTAATCCGTATTTGTT (site ACATCTACTGA)”, the “recombinant UMI read abundance (log10)” value was 0.

For the sequence “ACATCTACATGGACCGGTTTTCCCGGTAATCCGTATTTGTT (site ACATCTACTTA)”, the “recombinant UMI read abundance (log10)” value was determined as 0.0357.

“ACATGCACATGGACCGGTTTTCCCGGTAATCCGTATTTGTC (site ACATGCACTGA)”: the “recombinant UMI read abundance (log10)” value was 2.06.

As for “ACATGCGCATGGACCGGTTTTCCCGGTAATCCGTATTTGAT (site ACATGCGCTAT)”, the “recombinant UMI read abundance (log10)” value was 2.22.

As to “ACATGTACATGGACCGGTTTTCCCGGTAATCCGTATTTGTG (site ACATATACTCA)”, the “recombinant UMI read abundance (log10)” value was 0.616.

For “ACATGTACATGGACCGGTTTTCCCGGTAATCCGTATTTGTG (site ACATCTACTCA)”, the “recombinant UMI read abundance (log10)” value stood at 0.00614.

Consider “ACATGTACATGGACCGGTTTTCCCGGTAATCCGTATTTGTG (site ACATGTACTCA)”, for which the “recombinant UMI read abundance (log10)” value was 1.07.

On to “ACATGTACATGGACCGGTTTTCCCGGTAATCCGTATTTGTG (site ACATTTACTCA)”, for which the “recombinant UMI read abundance (log10)” value came to 0.

As for “ACATTGTCATGGACCGGTTTTCCCGGTAATCCGTATTTGCA (site ACAGTATCTTG)”, the “recombinant UMI read abundance (log10)” value was 1.37.

On to “ACATTGTCATGGACCGGTTTTCCCGGTAATCCGTATTTGCA (site ACATTGTCTTG)”, for which the “recombinant UMI read abundance (log10)” value was determined as 2.75.

Regarding “ACCAAGTCATGGACCGGTTTTCCCGGTAATCCGTATTTGTG (site ACCAAGTCTCA)”, the “recombinant UMI read abundance (log10)” value was determined as 2.15.

Regarding “ACCAATTCATGGACCGGTTTTCCCGGTAATCCGTATTTGCT (site ACCAATTCTAG)”, the “recombinant UMI read abundance (log10)” value was 2.42.

On to “ACCACGACATGGACCGGTTTTCCCGGTAATCCGTATTTGAC (site ACCACGACTGT)”, for which the “recombinant UMI read abundance (log10)” value stood at 2.72.

In the case of “ACCAGCCCATGGACCGGTTTTCCCGGTAATCCGTATTTGCT (site ACCAGCCCTAG)”, the “recombinant UMI read abundance (log10)” value was 0.0684.

As to “ACCCCAACATGGACCGGTTTTCCCGGTAATCCGTATTTGAC (site ACCCCAACTGT)”, the “recombinant UMI read abundance (log10)” value came out at 2.49.

As to “ACCCGTCCATGGACCGGTTTTCCCGGTAATCCGTATTTGAT (site AACCGTCCTAT)”, the “recombinant UMI read abundance (log10)” value amounted to 0.00657.

Regarding “ACCCGTCCATGGACCGGTTTTCCCGGTAATCCGTATTTGAT (site ACCCGTCCTAT)”, the “recombinant UMI read abundance (log10)” value is 0.224.

Take “ACCCGTCCATGGACCGGTTTTCCCGGTAATCCGTATTTGAT (site AGCCGTCCTAT)”: the “recombinant UMI read abundance (log10)” value was found to be 0.0209.

As for “ACCCGTCCATGGACCGGTTTTCCCGGTAATCCGTATTTGAT (site ATCCGTCCTAT)”, the “recombinant UMI read abundance (log10)” value was 0.015.

As to “ACCCGTCCATGGACCGGTTTTCCCGGTAATCCGTATTTGTA (site ACCCGTCCTTA)”, the “recombinant UMI read abundance (log10)” value turned out to be 0.613.

As for “ACCGTCTCATGGACCGGTTTTCCCGGTAATCCGTATTTGCA (site ACAGTATCTTG)”, the “recombinant UMI read abundance (log10)” value was 0.902.

In the case of “ACCGTCTCATGGACCGGTTTTCCCGGTAATCCGTATTTGCA (site ACCGTCTCTTG)”, the “recombinant UMI read abundance (log10)” value is 2.85.

As for “ACCGTGACATGGACCGGTTTTCCCGGTAATCCGTATTTGCA (site ACCGTGACTTG)”, the “recombinant UMI read abundance (log10)” value stood at 2.4.

As for “ACCTAGACATGGACCGGTTTTCCCGGTAATCCGTATTTGGG (site AACTAGACTCC)”, the “recombinant UMI read abundance (log10)” value is 0.0442.

On to “ACCTAGACATGGACCGGTTTTCCCGGTAATCCGTATTTGGG (site ACATAGACTCC)”, for which the “recombinant UMI read abundance (log10)” value stood at 0.00696.

“ACCTAGACATGGACCGGTTTTCCCGGTAATCCGTATTTGGG (site ACCAAGACTCC)”: the “recombinant UMI read abundance (log10)” value came to 0.00495.

As to “ACCTAGACATGGACCGGTTTTCCCGGTAATCCGTATTTGGG (site ACCCAGACTCC)”, the “recombinant UMI read abundance (log10)” value is 0.00611.

As for “ACCTAGACATGGACCGGTTTTCCCGGTAATCCGTATTTGGG (site ACCGAGACTCC)”, the “recombinant UMI read abundance (log10)” value amounted to 0.

For “ACCTAGACATGGACCGGTTTTCCCGGTAATCCGTATTTGGG (site ACCTAAACTCC)”, the “recombinant UMI read abundance (log10)” value was 0.

In the case of “ACCTAGACATGGACCGGTTTTCCCGGTAATCCGTATTTGGG (site ACCTACACTCC)”, the “recombinant UMI read abundance (log10)” value was determined as 0.0139.

As for “ACCTAGACATGGACCGGTTTTCCCGGTAATCCGTATTTGGG (site ACCTAGACTAC)”, the “recombinant UMI read abundance (log10)” value came to 0.0239.

On to “ACCTAGACATGGACCGGTTTTCCCGGTAATCCGTATTTGGG (site ACCTAGACTCA)”, for which the “recombinant UMI read abundance (log10)” value was 0.0191.

As for “ACCTAGACATGGACCGGTTTTCCCGGTAATCCGTATTTGGG (site ACCTAGACTCC)”, the “recombinant UMI read abundance (log10)” value turned out to be 0.0334.

For “ACCTAGACATGGACCGGTTTTCCCGGTAATCCGTATTTGGG (site ACCTAGACTCG)”, the “recombinant UMI read abundance (log10)” value worked out at 0.634.

For the sequence “ACCTAGACATGGACCGGTTTTCCCGGTAATCCGTATTTGGG (site ACCTAGACTCT)”, the “recombinant UMI read abundance (log10)” value was 0.00788.

As to “ACCTAGACATGGACCGGTTTTCCCGGTAATCCGTATTTGGG (site ACCTAGACTGC)”, the “recombinant UMI read abundance (log10)” value came out at 0.00778.

“ACCTAGACATGGACCGGTTTTCCCGGTAATCCGTATTTGGG (site ACCTAGACTTC)”: the “recombinant UMI read abundance (log10)” value came out at 0.00986.

For the sequence “ACCTAGACATGGACCGGTTTTCCCGGTAATCCGTATTTGGG (site ACCTAGCCTCC)”, the “recombinant UMI read abundance (log10)” value was 0.0119.

Consider “ACCTAGACATGGACCGGTTTTCCCGGTAATCCGTATTTGGG (site ACCTAGGCTCC)”, for which the “recombinant UMI read abundance (log10)” value was 0.0977.

As to “ACCTAGACATGGACCGGTTTTCCCGGTAATCCGTATTTGGG (site ACCTAGTCTCC)”, the “recombinant UMI read abundance (log10)” value worked out at 0.0195.

Take “ACCTAGACATGGACCGGTTTTCCCGGTAATCCGTATTTGGG (site ACCTATACTCC)”: the “recombinant UMI read abundance (log10)” value amounted to 0.333.

Turning to “ACCTAGACATGGACCGGTTTTCCCGGTAATCCGTATTTGGG (site ACCTCGACTCC)”, the “recombinant UMI read abundance (log10)” value turned out to be 0.00246.

For the sequence “ACCTAGACATGGACCGGTTTTCCCGGTAATCCGTATTTGGG (site ACCTGGACTCC)”, the “recombinant UMI read abundance (log10)” value stood at 0.0143.

For “ACCTAGACATGGACCGGTTTTCCCGGTAATCCGTATTTGGG (site ACCTTGACTCC)”, the “recombinant UMI read abundance (log10)” value was 0.0253.

As for “ACCTAGACATGGACCGGTTTTCCCGGTAATCCGTATTTGGG (site ACGTAGACTCC)”, the “recombinant UMI read abundance (log10)” value came out at 0.0154.

Consider “ACCTAGACATGGACCGGTTTTCCCGGTAATCCGTATTTGGG (site ACTTAGACTCC)”, for which the “recombinant UMI read abundance (log10)” value was 0.0151.

In the case of “ACCTAGACATGGACCGGTTTTCCCGGTAATCCGTATTTGGG (site AGCTAGACTCC)”, the “recombinant UMI read abundance (log10)” value was determined as 0.0336.

In the case of “ACCTAGACATGGACCGGTTTTCCCGGTAATCCGTATTTGGG (site ATCTAGACTCC)”, the “recombinant UMI read abundance (log10)” value came out at 0.015.

On to “ACCTAGACATGGACCGGTTTTCCCGGTAATCCGTATTTGGG (site CCCTAGACTCC)”, for which the “recombinant UMI read abundance (log10)” value turned out to be 0.00828.

Take “ACCTAGACATGGACCGGTTTTCCCGGTAATCCGTATTTGGG (site GCCTAGACTCC)”: the “recombinant UMI read abundance (log10)” value stood at 0.00312.

As for “ACCTAGACATGGACCGGTTTTCCCGGTAATCCGTATTTGGG (site TCCTAGACTCC)”, the “recombinant UMI read abundance (log10)” value came to 0.0161.

Take “ACCTAGCCATGGACCGGTTTTCCCGGTAATCCGTATTTGCC (site ACCTAGCCTGG)”: the “recombinant UMI read abundance (log10)” value came to 0.

Turning to “ACCTAGCCATGGACCGGTTTTCCCGGTAATCCGTATTTGCC (site CCCTAGCCTGG)”, the “recombinant UMI read abundance (log10)” value amounted to 0.

For “ACCTAGCCATGGACCGGTTTTCCCGGTAATCCGTATTTGCC (site GCCTAGCCTGG)”, the “recombinant UMI read abundance (log10)” value was 0.

For “ACCTAGCCATGGACCGGTTTTCCCGGTAATCCGTATTTGCC (site TCCTAGCCTGG)”, the “recombinant UMI read abundance (log10)” value is 0.

As to “ACCTAGGCATGGACCGGTTTTCCCGGTAATCCGTATTTGGG (site ACCTAGACTCC)”, the “recombinant UMI read abundance (log10)” value amounted to 0.00318.

Turning to “ACCTAGGCATGGACCGGTTTTCCCGGTAATCCGTATTTGGG (site ACCTAGCCTCC)”, the “recombinant UMI read abundance (log10)” value was found to be 0.0364.

On to “ACCTAGGCATGGACCGGTTTTCCCGGTAATCCGTATTTGGG (site ACCTAGGCTCC)”, for which the “recombinant UMI read abundance (log10)” value was found to be 0.0121.

As to “ACCTAGGCATGGACCGGTTTTCCCGGTAATCCGTATTTGGG (site ACCTAGTCTCC)”, the “recombinant UMI read abundance (log10)” value was found to be 0.0121.

As for “ACCTCGACATGGACCGGTTTTCCCGGTAATCCGTATTTGGG (site ACCTAGACTCC)”, the “recombinant UMI read abundance (log10)” value stood at 0.0526.

Turning to “ACCTCGACATGGACCGGTTTTCCCGGTAATCCGTATTTGGG (site ACCTCGACTCC)”, the “recombinant UMI read abundance (log10)” value was determined as 0.00574.

Turning to “ACCTCGACATGGACCGGTTTTCCCGGTAATCCGTATTTGGG (site ACCTGGACTCC)”, the “recombinant UMI read abundance (log10)” value came out at 0.0333.

Take “ACCTCGACATGGACCGGTTTTCCCGGTAATCCGTATTTGGG (site ACCTTGACTCC)”: the “recombinant UMI read abundance (log10)” value was determined as 0.

“ACCTCTACATGGACCGGTTTTCCCGGTAATCCGTATTTGTG (site ACATCTACTCA)”: the “recombinant UMI read abundance (log10)” value was 0.014.

Regarding “ACCTCTACATGGACCGGTTTTCCCGGTAATCCGTATTTGTG (site ACCTCTACTCA)”, the “recombinant UMI read abundance (log10)” value turned out to be 0.0203.

These data come from the supplement of paper PMC11208160.
